Experimental data from US20230219886A1, “NOVEL SELENO-NSAID ANALOGS AND USES THEREOF” (THE PENN STATE RESEARCH FOUNDATION, priority 2020, published 2023).

Tested on: NCI-H226 (non-small cell lung cancer)
Assay: NCI-60 one-dose screen, NCI-H226
Type: cell-based, human
Conditions: NCI-H226, 10 μM, 48 h
Text: NCI-60 Analysis. 1a and 6a were submitted to National Cancer Institute's (NCI) Developmental Therapeutics Program (DTP) where the cytotoxicity profile was investigated across their 60 human cancer cell line panel according to the protocol available on multiple sources (71-73, 83). The COMPARE algorithm (73), was utilized to evaluate the activity profile of 6a in comparison to those of known cytotoxins established in marketed drugs and standard agent data sets in order to correlate plausible modes of action.
NCI-60 analysis. Compounds 1a, 5a and 6a were submitted to the National Cancer Institute's (NCI) Developmental Therapeutics Program (DTP). NCI-60 program consists in a panel of 60 human cancer cell lines from a variety of cancers, including refractory tumors such as lung, ovarian, CRC, breast, brain and renal cancers, and melanomas together with more treatable cancers such as leukemias (71). 1a [NSC: 803071], 5a [NSC: 820332] and 6a [NSC: 811013] were initially screened at one dose (10 μM) at 48 h. Then, NCI selected only compound 6a to perform dose-response characterization (72).

SMILES: C[Se]C(=O)c1ccccc1OC(C)=O [Compound 1a, 2-((methylselanyl)carbonyl)phenyl acetate]
- Growth percent (GP): < 12%
